Measurements: paper PMC8429728, “TNK1 is a ubiquitin-binding and 14-3-3-regulated kinase that can be targeted to block tumor growth” (Nature Communications, 2021)
Like-named read-outs stand apart in the source and are kept apart here.

Tests used:
Experiment in all cases: biochemical
Design in all cases: Reaction Biology 371-kinase panel at Km ATP, per cent enzyme activity relative to DMSO, single dose in duplicate
NEK7 = NEK7 (Homo sapiens, UniProt Q8TDX7); settings: duplicate measurements, Km ATP
Procedure, shortened: (§1)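 Percent kinase activity relative to vehicle (DMSO) is reported for a 371-kinase in vitro panel at 300 nM compound; IC50 values derive from variable-slope sigmoidal fits with the lower plateau fixed at 0.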

PHKg1 = PHKg1 (Homo sapiens, UniProt Q16816); settings: duplicate measurements, Km ATP
Procedure, shortened: as §1

FGR = FGR (Homo sapiens, UniProt P09769); settings: duplicate measurements, Km ATP
Procedure, shortened: as §1

DYRK1/DYRK1A = DYRK1/DYRK1A (Homo sapiens, UniProt Q13627); settings: duplicate measurements, Km ATP
Procedure, shortened: as §1

GRK7 = GRK7 (Homo sapiens, UniProt Q8WTQ7); settings: duplicate measurements, Km ATP
Procedure, shortened: as §1

RIPK2 = RIPK2 (Homo sapiens, UniProt O43353); settings: duplicate measurements, Km ATP
Procedure, shortened: as §1

TESK1 = TESK1 (Homo sapiens, UniProt Q15569); settings: duplicate measurements, Km ATP; read-out: % Enzyme Activity (relative to DMSO controls) / TP-0005801 (0.3µM) / Data 1
Procedure, shortened: as §1

ULK1 = ULK1 (Homo sapiens, UniProt O75385); settings: duplicate measurements, Km ATP
Procedure, shortened: as §1

LKB1 = target: T1, LKB1 (Homo sapiens, UniProt Q15831); settings: duplicate measurements, Km ATP
T1 construct: gene STK11
Procedure, shortened: as §1

FAK/PTK2 = FAK/PTK2 (Homo sapiens, UniProt Q05397); settings: duplicate measurements, Km ATP
Procedure, shortened: as §1

SRMS = SRMS (Homo sapiens, UniProt Q9H3Y6); settings: duplicate measurements, Km ATP
Procedure, shortened: as §1

IKKe/IKBKE = IKKe/IKBKE (Homo sapiens, UniProt Q14164); settings: duplicate measurements, Km ATP
Procedure, shortened: as §1

KDR/VEGFR2 = KDR/VEGFR2 (Homo sapiens, UniProt P35968); settings: duplicate measurements, Km ATP
Procedure, shortened: as §1

LATS2 = LATS2 (Homo sapiens, UniProt Q9NRM7); settings: duplicate measurements, Km ATP
Procedure, shortened: as §1

MST1/STK4 = MST1/STK4 (Homo sapiens, UniProt Q13043); settings: duplicate measurements, Km ATP
Procedure, shortened: as §1

STK32B/YANK2 = STK32B/YANK2 (Homo sapiens, UniProt Q9NY57); settings: duplicate measurements, Km ATP
Procedure, shortened: as §1

PKN3/PRK3 = PKN3/PRK3 (Homo sapiens, UniProt Q6P5Z2); settings: duplicate measurements, Km ATP
Procedure, shortened: as §1

FES/FPS = FES/FPS (Homo sapiens, UniProt P07332); settings: duplicate measurements, Km ATP
Procedure, shortened: as §1

Haspin = Haspin (Homo sapiens, UniProt Q8TF76); settings: duplicate measurements, Km ATP
Procedure, shortened: as §1

FLT3 = FLT3 (Homo sapiens, UniProt P36888); settings: duplicate measurements, Km ATP
Procedure, shortened: as §1

[1] = read-out: % Enzyme Activity (relative to DMSO controls) / TP-0005801 (0.3µM) / Data 1
[2] = read-out: % Enzyme Activity (relative to DMSO controls) / TP-0005801 (0.3µM) / Data 2

Sequence of ULK1 (O75385 whole entry): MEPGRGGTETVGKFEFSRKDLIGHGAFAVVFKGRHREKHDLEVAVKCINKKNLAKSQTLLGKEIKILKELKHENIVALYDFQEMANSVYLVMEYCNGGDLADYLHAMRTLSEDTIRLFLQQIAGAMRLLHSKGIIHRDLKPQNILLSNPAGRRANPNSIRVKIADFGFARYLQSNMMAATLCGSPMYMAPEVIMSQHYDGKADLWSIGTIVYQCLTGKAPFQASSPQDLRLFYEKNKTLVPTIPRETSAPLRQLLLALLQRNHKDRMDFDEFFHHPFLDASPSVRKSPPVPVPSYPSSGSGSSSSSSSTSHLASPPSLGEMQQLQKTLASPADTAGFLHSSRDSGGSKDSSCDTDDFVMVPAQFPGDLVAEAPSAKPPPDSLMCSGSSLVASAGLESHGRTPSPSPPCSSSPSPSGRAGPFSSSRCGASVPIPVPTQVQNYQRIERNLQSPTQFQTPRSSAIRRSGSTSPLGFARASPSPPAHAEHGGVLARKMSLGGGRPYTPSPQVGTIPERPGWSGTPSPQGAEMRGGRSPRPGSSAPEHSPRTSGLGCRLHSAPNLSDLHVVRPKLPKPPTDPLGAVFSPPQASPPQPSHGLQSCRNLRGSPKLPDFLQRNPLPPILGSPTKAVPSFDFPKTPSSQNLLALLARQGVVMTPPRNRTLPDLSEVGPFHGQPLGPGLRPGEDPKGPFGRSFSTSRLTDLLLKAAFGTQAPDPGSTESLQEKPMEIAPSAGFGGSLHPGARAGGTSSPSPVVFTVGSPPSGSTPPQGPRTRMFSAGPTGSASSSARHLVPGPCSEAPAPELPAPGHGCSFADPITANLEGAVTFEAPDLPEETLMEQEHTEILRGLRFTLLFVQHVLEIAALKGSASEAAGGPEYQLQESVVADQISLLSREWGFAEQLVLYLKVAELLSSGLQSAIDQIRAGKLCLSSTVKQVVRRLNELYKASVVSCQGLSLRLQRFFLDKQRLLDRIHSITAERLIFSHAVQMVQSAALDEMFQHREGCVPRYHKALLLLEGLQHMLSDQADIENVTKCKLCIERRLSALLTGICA
Sequence of STK32B/YANK2 (Q9NY57 whole entry): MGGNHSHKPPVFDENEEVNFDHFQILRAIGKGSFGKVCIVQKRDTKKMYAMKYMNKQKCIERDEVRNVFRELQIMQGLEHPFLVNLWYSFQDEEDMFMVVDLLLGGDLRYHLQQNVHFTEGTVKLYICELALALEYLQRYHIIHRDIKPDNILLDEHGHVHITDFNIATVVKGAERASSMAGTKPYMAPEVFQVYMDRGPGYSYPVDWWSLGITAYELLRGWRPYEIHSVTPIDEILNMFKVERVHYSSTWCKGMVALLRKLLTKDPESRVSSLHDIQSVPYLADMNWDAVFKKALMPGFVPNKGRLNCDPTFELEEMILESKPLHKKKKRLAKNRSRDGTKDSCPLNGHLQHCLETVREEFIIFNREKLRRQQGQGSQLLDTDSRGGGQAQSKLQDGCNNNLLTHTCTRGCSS
Sequence of LATS2 (Q9NRM7 whole entry): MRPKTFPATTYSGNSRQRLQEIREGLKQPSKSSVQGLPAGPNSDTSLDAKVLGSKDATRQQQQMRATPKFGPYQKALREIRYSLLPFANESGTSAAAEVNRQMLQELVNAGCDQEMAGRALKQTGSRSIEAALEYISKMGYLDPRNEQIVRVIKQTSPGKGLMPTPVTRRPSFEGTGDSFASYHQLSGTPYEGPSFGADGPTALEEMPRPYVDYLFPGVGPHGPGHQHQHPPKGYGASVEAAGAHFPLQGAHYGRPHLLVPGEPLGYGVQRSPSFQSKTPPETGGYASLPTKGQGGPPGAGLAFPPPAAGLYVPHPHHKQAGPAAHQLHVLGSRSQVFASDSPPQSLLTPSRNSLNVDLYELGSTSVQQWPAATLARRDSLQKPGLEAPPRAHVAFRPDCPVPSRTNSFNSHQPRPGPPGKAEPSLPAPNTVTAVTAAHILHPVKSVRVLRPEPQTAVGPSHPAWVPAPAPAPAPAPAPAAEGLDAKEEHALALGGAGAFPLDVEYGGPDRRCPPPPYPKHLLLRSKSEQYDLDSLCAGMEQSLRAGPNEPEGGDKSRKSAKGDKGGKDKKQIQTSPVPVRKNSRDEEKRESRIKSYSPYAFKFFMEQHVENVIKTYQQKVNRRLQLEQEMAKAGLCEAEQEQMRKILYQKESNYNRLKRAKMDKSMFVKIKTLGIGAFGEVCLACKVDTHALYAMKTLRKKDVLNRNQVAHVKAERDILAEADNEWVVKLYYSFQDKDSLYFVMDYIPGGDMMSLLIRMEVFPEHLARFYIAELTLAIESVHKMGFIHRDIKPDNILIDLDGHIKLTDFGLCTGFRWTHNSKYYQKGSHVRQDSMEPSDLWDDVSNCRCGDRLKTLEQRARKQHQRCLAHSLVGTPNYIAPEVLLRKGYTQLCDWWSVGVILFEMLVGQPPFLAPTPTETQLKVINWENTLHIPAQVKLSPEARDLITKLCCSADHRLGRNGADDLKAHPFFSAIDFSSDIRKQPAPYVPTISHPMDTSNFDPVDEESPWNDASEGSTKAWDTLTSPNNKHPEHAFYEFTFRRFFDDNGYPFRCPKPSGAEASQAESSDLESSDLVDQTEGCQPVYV
Sequence of NEK7 (Q8TDX7 whole entry): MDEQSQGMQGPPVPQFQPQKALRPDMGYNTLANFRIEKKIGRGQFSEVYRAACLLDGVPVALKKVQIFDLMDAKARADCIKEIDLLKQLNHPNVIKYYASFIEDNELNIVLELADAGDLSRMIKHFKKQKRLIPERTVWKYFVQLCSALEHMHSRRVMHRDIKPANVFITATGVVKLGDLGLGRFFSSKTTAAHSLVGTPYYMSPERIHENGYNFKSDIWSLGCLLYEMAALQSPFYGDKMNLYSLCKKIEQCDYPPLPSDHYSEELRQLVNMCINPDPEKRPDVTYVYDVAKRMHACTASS
Sequence of FLT3 (P36888 whole entry): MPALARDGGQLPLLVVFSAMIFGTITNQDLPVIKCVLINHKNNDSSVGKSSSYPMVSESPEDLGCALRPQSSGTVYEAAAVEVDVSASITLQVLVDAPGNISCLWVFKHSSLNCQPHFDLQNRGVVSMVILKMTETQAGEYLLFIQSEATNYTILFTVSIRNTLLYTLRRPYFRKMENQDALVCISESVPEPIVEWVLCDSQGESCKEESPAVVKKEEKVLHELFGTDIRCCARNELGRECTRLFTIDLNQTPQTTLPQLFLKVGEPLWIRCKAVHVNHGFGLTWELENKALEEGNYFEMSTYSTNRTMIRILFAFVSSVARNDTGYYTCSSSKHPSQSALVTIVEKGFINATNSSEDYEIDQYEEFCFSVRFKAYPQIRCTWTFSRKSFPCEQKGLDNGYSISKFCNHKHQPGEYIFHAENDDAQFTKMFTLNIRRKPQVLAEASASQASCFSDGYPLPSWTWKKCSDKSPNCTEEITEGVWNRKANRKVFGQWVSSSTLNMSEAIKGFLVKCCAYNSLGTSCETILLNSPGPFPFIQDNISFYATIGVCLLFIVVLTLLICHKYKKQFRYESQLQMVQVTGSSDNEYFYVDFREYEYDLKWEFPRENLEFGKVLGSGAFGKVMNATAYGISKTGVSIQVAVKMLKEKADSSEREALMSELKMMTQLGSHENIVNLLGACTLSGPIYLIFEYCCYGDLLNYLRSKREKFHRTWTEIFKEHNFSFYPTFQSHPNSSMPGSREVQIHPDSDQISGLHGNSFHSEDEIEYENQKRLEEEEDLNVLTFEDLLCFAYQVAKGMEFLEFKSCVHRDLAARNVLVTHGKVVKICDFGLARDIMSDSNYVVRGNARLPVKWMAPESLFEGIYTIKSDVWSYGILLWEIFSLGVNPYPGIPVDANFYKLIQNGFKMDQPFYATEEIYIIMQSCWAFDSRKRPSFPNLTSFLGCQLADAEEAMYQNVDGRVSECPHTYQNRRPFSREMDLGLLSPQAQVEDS
T1 sequence (Q15831 whole entry): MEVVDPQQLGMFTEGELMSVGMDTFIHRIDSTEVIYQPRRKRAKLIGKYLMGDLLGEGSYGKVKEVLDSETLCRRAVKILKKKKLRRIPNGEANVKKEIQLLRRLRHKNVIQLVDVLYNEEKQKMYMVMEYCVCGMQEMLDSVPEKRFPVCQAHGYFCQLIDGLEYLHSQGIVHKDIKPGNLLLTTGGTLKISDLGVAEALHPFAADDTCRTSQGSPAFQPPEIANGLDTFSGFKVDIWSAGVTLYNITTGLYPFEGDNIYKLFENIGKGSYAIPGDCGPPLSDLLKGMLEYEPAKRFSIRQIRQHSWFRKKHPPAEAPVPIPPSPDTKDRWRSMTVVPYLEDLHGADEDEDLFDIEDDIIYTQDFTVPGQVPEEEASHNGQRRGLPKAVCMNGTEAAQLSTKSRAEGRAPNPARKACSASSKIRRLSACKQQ
Sequence of FGR (P09769 whole entry): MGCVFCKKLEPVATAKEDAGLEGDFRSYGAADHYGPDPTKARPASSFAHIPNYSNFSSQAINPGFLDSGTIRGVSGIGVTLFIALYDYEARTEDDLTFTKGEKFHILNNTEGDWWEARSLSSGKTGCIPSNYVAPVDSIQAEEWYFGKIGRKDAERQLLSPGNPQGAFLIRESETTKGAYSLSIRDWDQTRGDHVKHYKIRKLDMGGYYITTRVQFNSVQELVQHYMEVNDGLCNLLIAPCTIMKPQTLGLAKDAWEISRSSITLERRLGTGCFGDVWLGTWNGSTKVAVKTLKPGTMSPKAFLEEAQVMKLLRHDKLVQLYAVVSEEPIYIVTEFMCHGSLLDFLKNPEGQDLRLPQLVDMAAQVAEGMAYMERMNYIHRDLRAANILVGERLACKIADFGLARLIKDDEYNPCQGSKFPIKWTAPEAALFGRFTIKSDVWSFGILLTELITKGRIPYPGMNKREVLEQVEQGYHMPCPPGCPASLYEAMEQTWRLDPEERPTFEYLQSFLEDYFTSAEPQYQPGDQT

- remaining activity at 0.3 µM (NEK7; [1]): 90.2%
- remaining activity at 0.3 µM (NEK7; [2]): 89.5%
- remaining activity at 0.3 µM (PHKg1; [1]): 30.6%
- remaining activity at 0.3 µM (PHKg1; [2]): 29.7%
- remaining activity at 0.3 µM (FGR; [1]): 109%
- remaining activity at 0.3 µM (FGR; [2]): 105%
- remaining activity at 0.3 µM (DYRK1/DYRK1A; [1]): 86.5%
- remaining activity at 0.3 µM (DYRK1/DYRK1A; [2]): 85.9%
- remaining activity at 0.3 µM (GRK7; [1]): 105%
- remaining activity at 0.3 µM (GRK7; [2]): 97.5%
- remaining activity at 0.3 µM (RIPK2; [1]): 95.8%
- remaining activity at 0.3 µM (RIPK2; [2]): 93.9%
- remaining activity at 0.3 µM (TESK1): 102%
- remaining activity at 0.3 µM (ULK1; [1]): 49.9%
- remaining activity at 0.3 µM (ULK1; [2]): 49.7%
- remaining activity at 0.3 µM (LKB1; [1]): 107%
- remaining activity at 0.3 µM (LKB1; [2]): 105%
- remaining activity at 0.3 µM (FAK/PTK2; [1]): 12.3%
- remaining activity at 0.3 µM (FAK/PTK2; [2]): 11.4%
- remaining activity at 0.3 µM (SRMS; [1]): 89.9%
- remaining activity at 0.3 µM (SRMS; [2]): 89.5%
- remaining activity at 0.3 µM (IKKe/IKBKE; [1]): 99.7%
- remaining activity at 0.3 µM (IKKe/IKBKE; [2]): 94.2%
- remaining activity at 0.3 µM (KDR/VEGFR2; [1]): 93.5%
- remaining activity at 0.3 µM (KDR/VEGFR2; [2]): 93.2%
- remaining activity at 0.3 µM (LATS2; [1]): 95.8%
- remaining activity at 0.3 µM (LATS2; [2]): 92.4%
- remaining activity at 0.3 µM (MST1/STK4; [1]): 101%
- remaining activity at 0.3 µM (MST1/STK4; [2]): 97.2%
- remaining activity at 0.3 µM (STK32B/YANK2; [1]): 96.4%
- remaining activity at 0.3 µM (STK32B/YANK2; [2]): 94.8%
- remaining activity at 0.3 µM (PKN3/PRK3; [1]): 95.4%
- remaining activity at 0.3 µM (PKN3/PRK3; [2]): 93.7%
- remaining activity at 0.3 µM (FES/FPS; [1]): 18.2%
- remaining activity at 0.3 µM (FES/FPS; [2]): 17.6%
- remaining activity at 0.3 µM (Haspin; [1]): 88.2%
- remaining activity at 0.3 µM (Haspin; [2]): 86.9%
- remaining activity at 0.3 µM (FLT3; [1]): 3.9%
- remaining activity at 0.3 µM (FLT3; [2]): 3.79%
Structure (SMILES): COc1cc(N2CCN(C)CC2)c(C)cc1Nc1ncc(Br)c(Nc2cccnc2N(C)C)n1 [TP-5801]
